Test results from US20130143929A1, “FUNGICIDAL IMIDAZOLES” (EI DU PONT DE NEMOURS AND COMPANY, priority 2010, published 2013).
Marks after values point to notes of the source that are not given here.

Tests used:
Assay type in all cases: in vivo
[1] = test system: Puccinia recondite f. sp. tritici (the causal agent of wheat leaf rust); experiment: Test A: wheat leaf rust, preventive spray on wheat seedlings, visual disease rating; conditions: wheat leaf rust, preventive spray on wheat seedlings
Outline: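 Wheat seedlings were sprayed to run-off with compound suspended in acetone/water containing 250 ppm Trem 014 (200 ppm ≈ 800 g/ha; some at 40 ppm). Puccinia recondite spores were inoculated the next day. Plants were held 24 h saturated at 20° C, then 7 days at 20° C, and disease control was rated visually on a 0–100 scale against controls.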

[2] = test system: Botrytis cinerea (the causal agent of tomato Botrytis); experiment: Test C: tomato Botrytis, preventive spray on tomato seedlings, visual disease rating; conditions: tomato Botrytis, preventive spray on tomato seedlings
Outline: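 Test suspension (acetone/water with 250 ppm Trem 014; 200 ppm equivalent to 800 g/ha) sprayed to run-off on tomato seedlings; B. cinerea spores inoculated next day. After 48 h saturated humidity at 20° C then 3 days at 24° C, disease rated visually as % control relative to untreated controls (0–100).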

[3] = test system: Septoria tritici (the causal agent of wheat leaf blotch); experiment: Test B: wheat leaf blotch, preventive spray on wheat seedlings, visual disease rating; conditions: wheat leaf blotch, preventive spray on wheat seedlings
Outline: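 Wheat seedlings sprayed to run-off with compound suspension (acetone/water with 250 ppm Trem 014; 200 ppm ≈ 800 g/ha, some at 40 ppm), inoculated next day with Septoria tritici spores. 48 h saturated humidity at 24 °C, then 19 days at 20 °C; visual rating, 100 = full control.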

[4] = test system: Blumeria graminis f. sp. tritici (also known as Erysiphe graminis f. sp. tritici, the causal agent of wheat powdery mildew); experiment: Test D: wheat powdery mildew, preventive spray on wheat seedlings, visual disease rating; conditions: wheat powdery mildew, preventive spray on wheat seedlings
Outline: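 Compound suspended in acetone/water (50/50) with 250 ppm Trem 014 and sprayed to run-off on wheat seedlings (200 ppm ≈ 800 g/ha), then inoculated next day with spore dust. Disease rated visually after 8 days at 20 °C as % control relative to untreated plants (0-100).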

[5] = no asterisk (standard test suspension concentration, not 40 ppm)
[6] = asterisk: 40 ppm test suspension

SMILES | Test A rating (100 = 100% disease control, 0 = no disease control relative to the controls) [1, 5] | Test C rating (100 = 100% disease control, 0 = no disease control relative to the controls) [2, 5] | Test B rating (100 = 100% disease control, 0 = no disease control relative to the controls) [3, 5] | Test D rating (100 = 100% disease control, 0 = no disease control relative to the controls) [4, 5] | Test A rating (100 = 100% disease control, 0 = no disease control relative to the controls) [1, 6] | Test C rating (100 = 100% disease control, 0 = no disease control relative to the controls) [2, 6] | Test B rating (100 = 100% disease control, 0 = no disease control relative to the controls) [3, 6] | Test D rating (100 = 100% disease control, 0 = no disease control relative to the controls) [4, 6]
Cc1ncc(C(O)c2ccc(F)cc2Cl)n1-c1ccc(F)cc1Br (stereo not drawn) [compound 189] | 100% | 99% | 100% | 27% |  |  |  | 
Cc1nc(Br)c(C(O)c2ccc(F)cc2Cl)n1-c1ccc(F)cc1Br (stereo not drawn) [compound 190] | 100% | 99% | 100% | 0% |  |  |  | 
Cc1ccc(C(O)c2c(Cl)nc(C)n2-c2c(F)cccc2F)c(C)c1 (stereo not drawn) [compound 191] |  |  |  |  | 100* % | 80* % | 100* % | 99* %
COc1cc(F)c(C(O)c2c(Cl)nc(C)n2-c2c(F)cccc2F)c(F)c1 (stereo not drawn) [compound 192] |  |  |  |  | 100* % | 100* % | 100* % | 53* %
Cc1nc(Cl)c(C(O)c2c(Cl)cccc2Cl)n1-c1c(F)cccc1F (stereo not drawn) [compound 193] |  |  |  |  | 99* % | 59* % | 100* % | 0* %
Cc1nc(Br)c(C(O)c2c(Cl)cccc2Cl)n1-c1c(F)cccc1F (stereo not drawn) [compound 194] |  |  |  |  | 99* % | 77* % | 100* % | 0* %
Cc1nc(Cl)c(C(O)c2ccc(F)cc2Cl)n1-c1c(F)cc(C#N)cc1F (stereo not drawn) [compound 198] |  |  |  |  | 97* % | 0* % | 100* % | 0* %
Cc1nc(Br)c(C(O)c2ccc(C#N)cc2F)n1-c1c(F)cccc1F (stereo not drawn) [compound 199] |  |  |  |  | 0* % | 0* % | 62* % | 0* %
Cc1nc(Cl)c(C(O)c2ccc(F)cc2Cl)n1-c1c(F)cccc1Cl (stereo not drawn) [compound 200] |  |  |  |  | 100* % | 99* % | 100* % | 98* %
Cc1nc(Br)c(C(O)c2ccc(Cl)cc2Cl)n1-c1c(F)cccc1Cl (stereo not drawn) [compound 201] |  |  |  |  | 100* % | 99* % | 100* % | 89* %
Cc1nc(Br)c(C(O)c2ccc(Cl)cc2Cl)n1-c1c(F)cccc1F (stereo not drawn) [compound 202] |  |  |  |  | 98* % | 100* % | 100* % | 82* %
COc1cc(OC)c(Br)c(-n2c(C)nc(Br)c2C(O)c2c(F)cc(F)cc2F)c1 (stereo not drawn) [compound 203] | 41% | 66% | 30% | 0% |  |  |  | 
Cc1nc(Cl)c(C(O)c2c(F)cc(F)cc2F)n1-c1ccc(Cl)cc1 (stereo not drawn) [compound 204] | 19% | 45% | 75% | 0% |  |  |  | 
Cc1nc(Cl)n(-c2c(F)cccc2Br)c1C(O)c1ccc(F)cc1F (stereo not drawn) [compound 205] |  |  |  |  | 99* % | 100* % | 100* % | 93* %
Cc1nc(Cl)n(-c2c(F)cccc2Cl)c1C(O)c1ccc(F)cc1Cl (stereo not drawn) [compound 206] |  |  |  |  | 100* % | 100* % | 100* % | 93* %
Cc1nc(Cl)n(-c2c(F)cccc2Br)c1C(O)c1ccc(F)cc1Cl (stereo not drawn) [compound 207] |  |  |  |  | 100* % | 100* % | 100* % | 81* %
Cc1cc(F)ccc1C(O)c1c(C)nc(Cl)n1-c1c(F)cccc1Cl (stereo not drawn) [compound 208] |  |  |  |  | 100* % | 99* % | 100* % | 81* %
Cc1cc(F)ccc1C(O)c1c(C)nc(Cl)n1-c1c(F)cccc1Br (stereo not drawn) [compound 209] |  |  |  |  | 99* % | 100* % | 100* % | 42* %
COc1ccc(C(O)c2c(C)nc(Cl)n2-c2c(F)cccc2Cl)c(F)c1 (stereo not drawn) [compound 210] | 100% |  |  |  |  | 100* % | 100* % | 99* %
COc1ccc(C(O)c2c(C)nc(Cl)n2-c2c(F)cccc2Br)c(F)c1 (stereo not drawn) [compound 211] |  |  |  |  | 100* % | 100* % | 100* % | 98* %
COc1ccc(C(O)c2c(C)nc(Cl)n2-c2c(F)cccc2Cl)c(C)c1 (stereo not drawn) [compound 212] |  |  |  |  | 100* % | 100* % | 100* % | 97* %
